What follows are compounds tested on PC-3 cells (assay: PC-3 Oxygen Rate Consumption (OCR) Assay). Details: Homo sapiens, 0.05 h, medium with 2% FBS, OCR at 3-min post-injection normalized to % increase over DMSO-treated cells, concentration for half-maximal OCR increase, read-out: EC50-PC3-OCR-FBS-3min.
Type: cell-based
Procedure, shortened: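 PC-3 cells seeded a day before, equilibrated 1 h in XF medium with 10 mM glucose, 1 mM pyruvate, 2% FBS, non-CO2 at 37 °C. Compound injected after basal OCR reads; OCR at 3 min post-injection normalized as % increase over DMSO, EC50 = half-maximal increase; six replicates.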
With `CC(C)(C)S(=O)(=O)Nc1ccc(Cl)cc1C(=O)NC12CC(C#N)(C1)C2` [Example 85, 5-chloro-N-(3-cyanobicyclo[1.1.1]pentan-1-yl)-2-((1,1-dimethylethyl)sulfonamido)benzamide] the EC50 was 12.5 µM.
Work on `N#CC12CCC(NC(=O)c3cc(C(F)(F)F)ccc3NS(=O)(=O)c3ccccc3)(CC1)CC2` [Example 122, N-(4-cyanobicyclo[2.2.2]octan-1-yl)-2-(phenylsulfonamido)-5-(trifluoromethyl)benzamide] yielded an EC50 of 1.52 µM.
Compound `O=C(NC12CC(C1)C2)c1ccc(C(F)(F)F)cc1NS(=O)(=O)c1ccccc1` [Example 37, N-(bicyclo[1.1.1]pentan-1-yl)-2-(phenylsulfonamido)-4-(trifluoromethyl)benzamide] has an EC50 of 2.1 µM.
`O=C(NC12CC(C(F)(F)F)(C1)C2)c1ccc(C(F)(F)F)cc1NS(=O)(=O)c1cccnc1` [Example 59, 2-(pyridine-3-sulfonamido)-4-(trifluoromethyl)-N-(3-(trifluoromethyl)bicyclo[1.1.1]pentan-1-yl)benzamide] gave an EC50 of 1.84 µM.
`CC(C)(C)c1ccc(C(=O)NC23CC(C(F)(F)F)(C2)C3)c(NS(=O)(=O)c2ccc(S(C)(=O)=O)cc2)c1` [Example 13, 4-(tert-butyl)-2-((4-(methylsulfonyl)phenyl)sulfonamido)-N-(3-(trifluoromethyl)bicyclo[1.1.1]pentan-1-yl)benzamide] gave an EC50 of 5.72 µM.
Work on `CS(=O)(=O)c1ccc(S(=O)(=O)Nc2cc(C(F)(F)F)ccc2C(=O)NC23CC(C(F)(F)F)(C2)C3)cc1` [Example 8, 2-((4-(methylsulfonyl)phenyl)sulfonamido)-4-(trifluoromethyl)-N-(3-(trifluoromethyl)bicyclo[1.1.1]pentan-1-yl)benzamide] yielded an EC50 of 4.1 µM.
Work on `COC1CN(S(=O)(=O)Nc2ccc(C(F)(F)F)cc2C(=O)NC23CCC(C#N)(CC2)CC3)C1` [Example 182, N-(4-cyanobicyclo[2.2.2]octan-1-yl)-2-((3-methoxyazetidine)-1-sulfonamido)-5-(trifluoromethyl)benzamide] yielded an EC50 of 13 µM.
`CS(=O)(=O)Nc1cc(F)ccc1C(=O)NC12CC(C1)C2` [Example 137, N-(bicyclo[1.1.1]pentan-1-yl)-4-fluoro-2-(methylsulfonamido)benzamide] showed an EC50 of no less than 100 µM.
In the case of `CS(=O)(=O)Nc1cc(Br)ccc1C(=O)NC12CC(c3ccccc3)(C1)C2` [Example 49, 4-bromo-2-(methylsulfonamido)-N-(3-phenylbicyclo[1.1.1]pentan-1-yl)benzamide], the EC50 is reported as 4.99 µM.
`CS(=O)(=O)N1C2CCC1CN(S(=O)(=O)Nc1ccc(C(F)(F)F)cc1C(=O)NC13CCC(C#N)(CC1)CC3)C2` [Example 246, N-(4-cyanobicyclo[2.2.2]octan-1-yl)-2-(((1R,5S)-8-(methylsulfonyl)-3,8-diazabicyclo[3.2.1]octane)-3-sulfonamido)-5-(trifluoromethyl)benzamide] gave an EC50 of 14.5 µM.
In the case of `CS(=O)(=O)c1ccc(S(=O)(=O)Nc2cc(Br)ccc2C(=O)NC23CC(C(F)(F)F)(C2)C3)cc1` [Example 46, 4-bromo-2-((4-(methylsulfonyl)phenyl)sulfonamido)-N-(3-(trifluoromethyl)bicyclo[1.1.1]pentan-1-yl)benzamide], the EC50 is reported as 3.48 µM.
Compound `N#CC12CCC(NC(=O)c3cc(Cl)ccc3NS(=O)(=O)CCC(F)(F)F)(CC1)CC2` [Example 221, 5-chloro-N-(4-cyanobicyclo[2.2.2]octan-1-yl)-2-((3,3,3-trifluoropropyl)sulfonamido)benzamide] has an EC50 of 1.09 µM.
With `N#CC12CCC(NC(=O)c3cc(C(F)(F)F)ccc3NS(=O)(=O)N3CC(OC(F)(F)F)C3)(CC1)CC2` [Example 227, N-(4-cyanobicyclo[2.2.2]octan-1-yl)-2-((3-(trifluoromethoxy)azetidine)-1-sulfonamido)-5-(trifluoromethyl)benzamide] the EC50 was 1.45 µM.
In the case of `O=C(NC12CC(C(F)(F)F)(C1)C2)c1ccccc1NS(=O)(=O)CC(F)(F)F` [Example 143, 2-((2,2,2-trifluoroethyl)sulfonamido)-N-(3-(trifluoromethyl)bicyclo[1.1.1]pentan-1-yl)benzamide], the EC50 is reported as 10.2 µM.
`CS(=O)(=O)c1ccc(S(=O)(=O)Nc2cc(C(F)(F)F)ccc2C(=O)NC23CC(c4ccccc4)(C2)C3)cc1` [Example 11, 2-((4-(methylsulfonyl)phenyl)sulfonamido)-N-(3-phenylbicyclo[1.1.1]pentan-1-yl)-4-(trifluoromethyl)benzamide] showed an EC50 of 1.92 µM.
`COCCS(=O)(=O)Nc1ccc(C(F)(F)F)cc1C(=O)NC12CCC(C#N)(CC1)CC2` [Example 128, N-(4-cyanobicyclo[2.2.2]octan-1-yl)-2-((2-methoxyethyl)sulfonamido)-5-(trifluoromethyl)benzamide] was tested, and the EC50 was 15.4 µM.
Work on `CCS(=O)(=O)c1ccc(S(=O)(=O)Nc2cc(C(F)(F)F)ccc2C(=O)NC23CC(F)(C2)C3)cc1` [Example 26, 2-((4-(ethylsulfonyl)phenyl)sulfonamido)-N-(3-fluorobicyclo[1.1.1]pentan-1-yl)-4-(trifluoromethyl)benzamide] yielded an EC50 of 6.94 µM.
In the case of `CS(=O)(=O)c1ccc(S(=O)(=O)Nc2cc(S(F)(F)(F)(F)F)ccc2C(=O)NC23CC(C2)C3)cc1` [Example 155, N-(bicyclo[1.1.1]pentan-1-yl)-2-((4-(methylsulfonyl)phenyl)sulfonamido)-4-(pentafluoro-λ^6-sulfanyl)benzamide], the EC50 is reported as 5.87 µM.
`CN(C)S(=O)(=O)c1ccc(S(=O)(=O)Nc2cc(C(F)(F)F)ccc2C(=O)NC23CC(c4ccccc4)(C2)C3)cc1` [Example 30, 2-((4-(N,N-dimethylsulfamoyl)phenyl)sulfonamido)-N-(3-phenylbicyclo[1.1.1]pentan-1-yl)-4-(trifluoromethyl)benzamide] was tested, and the EC50 was 1.11 µM.
For `O=C(NC12CC(C(F)(F)F)(C1)C2)c1ccc(C(F)(F)F)cc1NS(=O)(=O)c1ccc(S(=O)(=O)C(F)F)cc1` [Example 34, 2-((4-((difluoromethyl)sulfonyl)phenyl)sulfonamido)-4-(trifluoromethyl)-N-(3-(trifluoromethyl)bicyclo[1.1.1]pentan-1-yl)benzamide], the EC50 was 2.71 µM.
`CS(=O)(=O)c1ccc(S(=O)(=O)Nc2ccc(C(F)(F)F)cc2C(=O)NC23CCC(C#N)(CC2)CC3)cc1` [Example 118, N-(4-cyanobicyclo[2.2.2]octan-1-yl)-2-((4-(methylsulfonyl)phenyl)sulfonamido)-5-(trifluoromethyl)benzamide] showed an EC50 of 49.2 µM.
`CS(=O)(=O)Nc1cc(C(F)(F)F)ccc1C(=O)NC12CCC(C#N)(CC1)CC2` [Example 168, N-(4-cyanobicyclo[2.2.2]octan-1-yl)-2-(methylsulfonamido)-4-(trifluoromethyl)benzamide] was tested, and the EC50 was 15 µM.
In the case of `CS(=O)(=O)Nc1cc(C#N)ccc1C(=O)NC12CC(C(F)(F)F)(C1)C2` [Example 148, 4-cyano-2-(methylsulfonamido)-N-(3-(trifluoromethyl)bicyclo[1.1.1]pentan-1-yl)benzamide], the EC50 is reported as 17.7 µM.
With `CN(C)S(=O)(=O)Nc1ccc(C(F)(F)F)cc1C(=O)NC12CCC(C#N)(CC1)CC2` [Example 190, N-(4-cyanobicyclo[2.2.2]octan-1-yl)-2-((N,N-dimethylsulfamoyl)amino)-5-(trifluoromethyl)benzamide] the EC50 was 4.15 µM.
`N#Cc1ccc(NS(=O)(=O)N2CCCC2)c(C(=O)NC23CCC(C#N)(CC2)CC3)c1` [Example 131, 5-cyano-N-(4-cyanobicyclo[2.2.2]octan-1-yl)-2-(pyrrolidine-1-sulfonamido)benzamide] showed an EC50 of 19.5 µM.

From patent US12049439B2 (OrsoBio, Inc., priority 2018, dated 2024)
